Results reported in PubChem BioAssay AID248 (DTP/NCI, 2004).
Several values for one entry are separate records, joined by “and”; a condition that tells them apart may be missing. Equal entries are not always repeated. Toxic doses and inconclusive results are not listed. No stated cut-off is given here; in the data, active means T/C of 150% or more; inactive means T/C below 125%.

System: L1210 leukemia ip in BDF1 mice, survival T/C
Test: NCI In Vivo Anticancer Drug Screen. Data for tumor model L1210 Leukemia (intraperitoneal) in B6D2F1 (BDF1) mice
Details: endpoint: mean survival time, higher = longer survival
Summary of the method: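 Ratio derived from survival: compound-dosed mice over vehicle-dosed mice, all bearing a transplantable tumor.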

[1] = dose: 100.0 mg/kg/injection, schedule: Q01DX009 (ip), vehicle: Klucel (hydroxypropylcellulose) (HPC)
[2] = dose: 100.0 mg/kg/injection, schedule: Q04DX003 (ip), vehicle: Klucel (hydroxypropylcellulose) (HPC)
[3] = dose: 200.0 mg/kg/injection, schedule: Q01DX009 (ip), vehicle: Klucel (hydroxypropylcellulose) (HPC)
[4] = dose: 200.0 mg/kg/injection, schedule: Q04DX003 (ip), vehicle: Klucel (hydroxypropylcellulose) (HPC)
[5] = dose: 50.0 mg/kg/injection, schedule: Q01DX009 (ip), vehicle: Klucel (hydroxypropylcellulose) (HPC)
[6] = dose: 100.0 mg/kg/injection, schedule: Q01DX009 (ip), vehicle: saline
[7] = dose: 200.0 mg/kg/injection, schedule: Q01DX009 (ip), vehicle: saline

Measured: T/C

COc1ccc(C(C)=O)cc1OCc1ccccc1
inactive: dose: 100.0 mg/kg/injection, schedule: Q01DX009 (ip), vehicle: water 112 % of control | dose: 100.0 mg/kg/injection, schedule: Q04DX003 (ip), vehicle: water 98 % of control | dose: 200.0 mg/kg/injection, schedule: Q01DX009 (ip), vehicle: water 108 % of control | dose: 200.0 mg/kg/injection, schedule: Q04DX003 (ip), vehicle: water 100 % of control | dose: 400.0 mg/kg/injection, schedule: Q01DX009 (ip), vehicle: water 103 % of control | dose: 400.0 mg/kg/injection, schedule: Q04DX003 (ip), vehicle: water 93 % of control

ClC(=C(c1ccccc1)c1ccccc1)c1ccccc1
inactive: [1] 92 % of control | [2] 94 % of control | [3] 96 % of control | [4] 92 % of control | dose: 400.0 mg/kg/injection, schedule: Q01DX009 (ip), vehicle: Klucel (hydroxypropylcellulose) (HPC) 95 % of control | dose: 400.0 mg/kg/injection, schedule: Q04DX003 (ip), vehicle: Klucel (hydroxypropylcellulose) (HPC) 95 % of control

NC(=O)C(N)CSCc1ccccc1 (centres undefined)
inactive: [5] 95 % of control | [1] 95 % of control | [6] 89 % of control | [3] 100 % of control | [7] 91 % of control | dose: 400.0 mg/kg/injection, schedule: Q01DX009 (ip), vehicle: saline 91 % of control

COC1OC(CO)C(O)C(O)C1O (centres undefined)
inactive: dose: 44.0 mg/kg/injection, schedule: Q01DX001 (ip), vehicle: saline 102 % of control and 105 % of control | dose: 50.0 mg/kg/injection, schedule: Q01DX001 (ip), vehicle: saline 102 % of control | dose: 50.0 mg/kg/injection, schedule: Q01DX009 (ip), vehicle: saline 90 % of control | dose: 66.0 mg/kg/injection, schedule: Q01DX001 (ip), vehicle: saline 96 % of control and 100 % of control | dose: 100.0 mg/kg/injection, schedule: Q01DX001 (ip), vehicle: saline 100 % of control and 107 % of control | [6] 109 % of control | dose: 150.0 mg/kg/injection, schedule: Q01DX001 (ip), vehicle: saline 105 % of control and 107 % of control | dose: 200.0 mg/kg/injection, schedule: Q01DX001 (ip), vehicle: saline 100 % of control | [7] 93 % of control | dose: 400.0 mg/kg/injection, schedule: Q01DX001 (ip), vehicle: saline 111 % of control

OC1(c2ccncc2)CCc2ccccc21 (centres undefined)
inactive: [5] 101 % of control | [1] 98 % of control | [2] 97 % of control | [3] 102 % of control | [4] 101 % of control

NC1=NC(CNC(=O)c2cccc([N+](=O)[O-])c2)N(c2cccc(Cl)c2)C(N)=N1 (centres undefined)
inactive: dose: 50.0 mg/kg/injection, schedule: Q01DX Z (ip), vehicle: methylcellulose (MC) 93 % of control
